Laboratory results published in PMC4329990 (2014).

system: d(C3TA2)3C3/d(T2AG3)4 duplex (DNA, duplex) CCCTAACCCTAACCCTAACCC/TTAGGGTTAGGGTTAGGGTTAGGG; assay: fluorescence titration, IT/IN, modified Benesi-Hildebrand; settings: citrate 10 mM; 10 mM citrate pH 7.0, <1% ethanol, 25 °C

Row | SMILES | Ka
1 | O=c1c(O)c(-c2ccccc2)oc2ccccc12 | 86700 M⁻¹
2 | O=c1c(O)c(-c2ccc(O)c(O)c2)oc2cc(O)ccc12 | 46200 M⁻¹
3 | O=c1c(O)c(-c2ccc(O)c(O)c2)oc2cc(O)cc(O)c12 | 10400 M⁻¹
